In the supplement of paper PMC4862054:

What was measured:
BT-549 [1] = test: normalised viability (% of control), CellTiter-Blue; higher = more viable cells (about 100 = DMSO control); details: 100 nM; incubation time: 72 h
Method in brief: (§1)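 Seeded at 20 µl suspension per well onto compound-loaded 384-well plates, breast cancer cell lines were incubated 72 h. CellTiter-Blue fluorescence at 560/590 nm was then read, with each plate normalised to vehicle (100) and a positive kill control (0). Normalised viability is reported at a single listed concentration of the series.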

CAL-148 [2] = test: as above; details: 10 nM; incubation time: 72 h
Method in brief: as §1

MDA-MB-453 [3] = test: as above; details: 10 nM; incubation time: 72 h
Method in brief: as §1

MFM-223 [4] = test: as above; details: 100 nM; incubation time: 72 h
Method in brief: as §1

BT-474 = test: as above; details: incubation time: 72 h
Method in brief: as §1

BT-549 [5] = test: as above; details: incubation time: 72 h
Method in brief: as §1

CAL-120 [6] = test: as above; details: incubation time: 72 h
Method in brief: as §1

CAL-148 [7] = test: as above; details: incubation time: 72 h
Method in brief: as §1

CAL-51 = test: as above; details: incubation time: 72 h
Method in brief: as §1

CAL-85-1 = test: as above; details: incubation time: 72 h
Method in brief: as §1

DU-4475 = test: as above; details: incubation time: 72 h
Method in brief: as §1

HCC1143 = test: as above; details: incubation time: 72 h
Method in brief: as §1

HCC1599 = test: as above; details: incubation time: 72 h
Method in brief: as §1

HCC1937 = test: as above; details: incubation time: 72 h
Method in brief: as §1

HDQ-P1 = test: as above; details: incubation time: 72 h
Method in brief: as §1

Hs578T = test: as above; details: incubation time: 72 h
Method in brief: as §1

MDA-MB-231 = test: as above; details: incubation time: 72 h
Method in brief: as §1

MDA-MB-436 = test: as above; details: incubation time: 72 h
Method in brief: as §1

MDA-MB-453 [8] = test: as above; details: incubation time: 72 h
Method in brief: as §1

MDA-MB-468 = test: as above; details: incubation time: 72 h
Method in brief: as §1

MFM-223 [9] = test: as above; details: incubation time: 72 h
Method in brief: as §1

SK-BR-3 = test: as above; details: incubation time: 72 h
Method in brief: as §1

CAL-120 [10] = test: drug sensitivity score (DSS), CellTox Green (DSS (AUC-based score)); higher = stronger drug effect (viability inhibition or cytotoxicity); extreme values may be limits of the assay; details: incubation time: 72 h
Method in brief: (§2)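 Normalisation on every plate relied on 0.1 % DMSO and a positive kill control. The plates, 384-well format, held compound at 5 concentrations 10-fold apart across a compound-specific 10,000-fold range, and breast cancer cell lines in 20 µl suspension were incubated on them for 72 h before CellTox Green and then CellTiter-Glo readings. The drug sensitivity score derives from the area under the fitted dose-response curve.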

CAL-148 [11] = test: as above; details: incubation time: 72 h
Method in brief: as §2

C#Cc1cccc(Nc2ncnc3cc(OCCOC)c(OCCOC)cc23)c1 [Erlotinib]
Details	drug sensitivity score	normalised viability [%]
BT-549 [1]	–	110
CAL-120 [10]	0	–
CAL-148 [2]	–	98.8
CAL-148 [11]	0	–
MDA-MB-453 [3]	–	114
MFM-223 [4]	–	88.5

normalised viability [%]
Details	3 nM	10 nM	30 nM	100 nM	1000 nM	10000 nM
BT-474	–	98.5	–	–	90.1	51
BT-549 [5]	–	117	–	–	106	66.9
CAL-51	102	–	96.1	98.8	–	–
CAL-85-1	93.7	–	82.8	88	–	–
CAL-120 [6]	–	91.4	–	–	95.1	50.1
CAL-148 [7]	89.7	–	102	98.2	–	–
DU-4475	107	–	90.7	86.7	–	–
HCC1143	–	105	–	–	90.7	68.8
HCC1599	–	91	–	–	74.5	54.8
HCC1937	–	95	–	–	80.2	63.6
HDQ-P1	108	–	94	85	–	–
Hs578T	–	123	–	–	120	69
MDA-MB-231	–	95	–	–	120	95.5
MDA-MB-436	–	108	–	–	83.9	74
MDA-MB-453 [8]	109	–	99.2	98	–	–
MDA-MB-468	–	108	–	–	75.2	43.6
MFM-223 [9]	–	97.3	–	–	91.5	54.1
SK-BR-3	–	91	–	–	91.2	27.6
